Where “and” joins values, the source holds several entries; their conditions need not be identical. Equal entries are not always repeated.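 Following 48 hours of exposure in 96-well plates, responses at five concentrations were used to interpolate endpoints linearly. GI50 is the concentration that inhibits growth by half. TGI denotes the concentration required for complete inhibition of growth.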
Experiments:
Experiment in all cases: NCI tumour cell line growth inhibition, 48 h
786-0 renal = tested on: 786-0 renal
HCT-116 colon = tested on: HCT-116 colon
HOP-92 NSCLC = tested on: HOP-92 NSCLC
SF-295 CNS = tested on: SF-295 CNS
SNB-19 CNS = tested on: SNB-19 CNS
SNB-78 CNS = tested on: SNB-78 CNS
SW-620 colon = tested on: SW-620 colon
DMS 114 small cell lung = tested on: DMS 114 small cell lung
LXFL 529 NSCLC = tested on: LXFL 529 NSCLC
M19-MEL melanoma = tested on: M19-MEL melanoma

SMILES	TGI (786-0 renal) [µM]	TGI (HCT-116 colon) [µM]	TGI (HOP-92 NSCLC)	TGI (SF-295 CNS) [µM]	TGI (SNB-19 CNS) [µM]	TGI (SNB-78 CNS) [µM]	TGI (SW-620 colon) [µM]	TGI (DMS 114 small cell lung) [µM]	GI50 (HCT-116 colon) [µM]	GI50 (HOP-92 NSCLC) [µM]	TGI (LXFL 529 NSCLC) [µM]	TGI (M19-MEL melanoma) [µM]	GI50 (SW-620 colon) [µM]	GI50 (DMS 114 small cell lung) [µM]	GI50 (LXFL 529 NSCLC) [µM]	GI50 (M19-MEL melanoma) [µM]	GI50 (SNB-78 CNS) [µM]	GI50 (786-0 renal) [µM]	GI50 (SF-295 CNS) [µM]	GI50 (SNB-19 CNS) [µM]
Cc1ccc([N+](=O)[O-])c2c(NCCCN(C)C)ccnc12	> 100	> 100	> 100 µM	> 100	> 100	> 100	> 100	–	–	–	–	–	–	–	–	–	–	–	–	–
COCC(=O)OC1CCn2c1nc1c2C(=O)C(C)=C(NC(C)=O)C1=O (configuration not stated)	18.4	10.4	2.95 µM and 4.62 µM	31.7	40.5	4.4	19.8	5.48	4.08	1.38	11.5	25.4	3.43	–	–	–	–	–	–	–
CC1(C)OC(=O)C=C([O-])O1.CC1(C)OC(=O)C=C([O-])O1.O=c1c(O)c(-c2ccc([O-])cc2[O-])oc2cc(O)cc(O)c12.[Ti+4]	> 100	> 100	–	> 100	> 100	> 100	> 100	> 100	–	–	> 100	> 100	–	64.7	> 100	92.1	> 100	–	–	–
Oc1c2c(c(O)c3ccccc13)=N[C@@H](c1ccccc1)[C@H](c1ccccc1)N=2	> 100	> 100	> 100 µM	> 100	> 100	> 100	> 100	> 100	–	–	> 100	> 100	–	–	–	–	–	–	–	–
COc1cc(/C=C/C(=N\NC(=O)c2ccccc2)c2sc(Nc3ccc(Cl)c(Cl)c3)nc2C)ccc1O	> 100	> 100	16.3 µM	> 100	> 100	93.2	> 100	71.5	–	–	> 100	> 100	–	–	–	–	–	–	–	–
COc1cc(/C=C\c2ccc(O)cc2)cc(OC)c1OC	> 100	> 59.8	–	5.48	> 100	8.3	> 100	–	–	–	> 100	> 100	–	–	–	–	–	–	–	–
CCOc1cccc2nc3cccc(C(=O)NCCN(C)C)c3nc12	> 28.7	2.37	–	–	11.2	9.3	–	3.7	–	–	> 21.9	2.83	–	–	–	–	–	–	–	–
CCOC(=O)Cc1nc(/C(C#N)=C/c2ccco2)[nH]c(=O)c1C#N	> 100	> 100	> 100 µM	> 100	> 100	93.9	> 100	–	–	–	> 100	> 100	–	–	–	–	–	–	–	–
CCOC(=O)/C(=C/c1ccco1)P(=O)(OCC)OCC	> 100	> 100	> 100 µM	> 100	–	> 100	> 100	> 100	–	–	> 100	> 100	–	–	–	–	–	–	–	–
CC(=O)[CH-]C(C)=O.CC(=O)[CH-]C(C)=O.N=CC=N.[Sn+2]	3.23	3.42	3.79 µM	23.3	27.8	–	3.11	5.17	1.72	1.74	2.6	–	1.71	2.32	1.32	–	–	1.76	10.4	14.6
NS(=O)(=O)c1ccc(NC(=O)c2cccc3c(=O)c4ccccc4[nH]c23)cc1	> 100	> 100	> 100 µM	> 100	> 100	> 100	> 100	> 100	–	–	> 100	> 100	–	–	–	–	–	–	–	–
N#Cc1c(N)c(C(=O)O)nn(-c2cccc(C(F)(F)F)c2)c1=O	> 100	> 100	> 100 µM	> 100	> 100	> 100	> 100	–	–	–	> 100	> 100	–	–	–	–	–	–	–	–
NC(CCSCC(F)F)C(=O)O (configuration not stated)	> 100	> 100	> 100 µM	> 100	> 100	> 100	> 100	> 100	–	–	> 100	> 100	–	–	–	–	–	–	–	–
Cc1cc(C)nc(NS(=O)(=O)c2ccc(Nc3c4ccccc4nc4c(C(=O)N5CCN(CCOS(C)(=O)=O)CC5)ccc(Cl)c34)cc2)n1	> 100	> 100	> 100 µM	> 100	> 100	> 100	–	> 100	–	–	–	> 100	–	–	–	–	–	–	–	–
CC(C)(C)c1nc2c(o1)C(=Nc1ccc(F)cc1)c1ccccc1C2=O	52.5	38.2	> 97.7 µM	19.6	26.6	> 100	30	7.81	–	–	> 100	3.08	–	–	–	–	–	–	–	–
O=c1c2ccccc2c2c3c1cccc3c1cccc3c(=O)c4ccccc4c2c31	> 100	> 100	> 100 µM	> 100	> 100	> 100	> 100	> 100	–	–	> 100	> 100	–	–	–	–	–	–	–	–
COc1ccc(C2=NC(C)(C)CO2)cc1	> 100	> 100	> 100 µM	> 100	> 100	> 100	> 100	> 100	–	–	–	> 100	–	–	–	–	–	–	–	–
CC1(C)CCc2cc3c(cc2O1)OCCC3=O	> 100	> 100	> 100 µM	> 100	> 100	–	> 100	> 100	–	–	> 100	> 100	–	–	–	–	–	–	–	–
O=C(c1ccccc1)[C@H]1Nc2cnccc2C2c3ccccc3CC21 (some centres not stated)	> 67	> 38.4	37.4 µM	48.3	> 100	> 79.8	47.3	30.7	–	–	19.7	23.8	–	–	–	–	–	–	–	–
COC(=O)/C(=N\NC(=S)NN)C(C(=O)C(=O)Nc1ccccc1C(N)=O)c1nc2ccccc2[nH]c1=O (configuration not stated)	> 100	> 100	> 100 µM	> 100	> 100	> 100	> 100	> 100	–	–	> 100	> 100	–	–	–	–	–	–	–	–

SMILES	TGI (786-0 renal) [µM]	TGI (HCT-116 colon) [µM]	TGI (HOP-92 NSCLC)	TGI (SF-295 CNS) [µM]	TGI (SNB-19 CNS) [µM]	TGI (SNB-78 CNS) [µM]	TGI (SW-620 colon) [µM]	TGI (DMS 114 small cell lung) [µM]	GI50 (HCT-116 colon) [µM]	GI50 (HOP-92 NSCLC) [µM]	TGI (LXFL 529 NSCLC) [µM]	TGI (M19-MEL melanoma) [µM]	GI50 (SW-620 colon) [µM]	GI50 (DMS 114 small cell lung) [µM]	GI50 (LXFL 529 NSCLC) [µM]	GI50 (M19-MEL melanoma) [µM]	GI50 (SNB-78 CNS) [µM]	GI50 (786-0 renal) [µM]	GI50 (SF-295 CNS) [µM]	GI50 (SNB-19 CNS) [µM]
N#CC(C#N)=Cc1cccc(Oc2ccccc2)c1	34.2	32.9	–	45.5	59.4	99.9	58.7	73.2	–	–	41	> 79	–	–	–	–	–	–	–	–
O=C1N[C@@H](O)[C@@H]2ON=C(c3ccccc3)[C@H]12	> 100	> 100	> 100 µM	> 100	> 100	–	> 100	> 100	–	–	> 100	> 100	–	–	–	–	–	–	–	–
COc1ccc2c(-c3cc4ccccc4o3)cc(=O)oc2c1	78.6	> 100	75.3 µM	79.7	> 100	> 100	> 100	–	–	–	> 100	> 100	–	–	–	–	–	–	–	–
COc1ccc(C(=O)C(C(=O)CCC(=O)Nc2cccc(C(F)(F)F)c2)c2ccccc2)cc1 (configuration not stated)	> 100	> 100	> 100 µM	> 100	> 100	> 100	> 100	> 100	–	–	> 100	> 100	–	–	–	–	–	–	–	–
CN1CCN(C)C1c1cccc(C2N(C)CCN2C)c1	> 100	> 100	> 100 µM	> 100	> 100	> 100	–	> 100	–	–	> 100	> 100	–	–	–	–	–	–	–	–
COc1ccc(C2C(N)=NCC2c2ccccn2)cc1 (configuration not stated)	> 100	> 100	> 100 µM	> 100	> 100	> 100	> 100	> 100	–	–	> 100	> 100	–	–	–	–	–	–	–	–
CC/C=C\C/C=C\C1CC(=O)NCCCNCCCCN1 (configuration not stated)	> 100	> 100	> 100 µM	> 100	> 100	> 100	> 100	> 100	–	–	> 100	> 100	–	–	–	–	–	–	–	–
CC1CCCC(C(=O)/C(=C/c2cccc(Cl)c2)C(=O)C(=O)O)C1 (configuration not stated)	33	26.9	> 100 µM	> 100	> 100	> 100	27.7	45.7	–	–	43	32.7	–	–	–	–	–	–	–	–
c1cc[c]([Sn]([S]c2cccc3cccnc23)([c]2ccccc2)[c]2ccccc2)cc1	0.0758	0.039	–	0.144	0.901	0.0659	0.0918	–	0.0161	–	0.0548	0.172	0.0225	–	0.0209	–	0.0203	0.0234	0.0462	0.256
Clc1ccc(CNc2nc3ccccc3nc2-c2cccs2)c(Cl)c1	> 100	> 100	76.6 µM	> 100	> 100	> 100	> 100	–	–	–	> 100	> 100	–	–	–	–	–	–	–	–
Cc1sc(C)c(-c2ccc(CO)o2)c1-c1ccc(CO)o1	> 100	> 100	> 100 µM	> 100	> 100	–	> 100	–	0.0695	7.01	–	–	0.499	–	–	–	–	–	0.276	> 100
C=C(COC(C)=O)CC(/C=C(\C)CCC=C(C)C)OC(C)=O (configuration not stated)	> 100	> 100	> 100 µM	> 100	> 100	> 100	> 100	> 100	–	–	> 100	> 100	–	–	–	–	–	–	–	–
CC(O)CN1C(=O)NC(Cc2ccccc2)C1=O (configuration not stated)	> 100	–	> 100 µM	> 100	> 100	> 100	> 100	> 100	–	–	> 100	–	–	–	–	–	–	–	–	–
COc1ccc(-c2cc(-c3cc(Cl)ccc3Cl)nc3nc(=S)[nH]c(N)c23)cc1	37.4	28.4	> 100 µM	46.5	> 100	–	> 100	–	15.1	11.8	–	–	38.7	–	–	–	–	20.1	17.1	58.1
c1ccc2c(c1)N=C(c1cccc3ccccc13)CC(c1cccc3ccccc13)S2 (configuration not stated)	13.5	12.9	–	27.2	12.9	33.4	6.81	9.96	–	–	11.4	20.3	–	–	–	–	–	–	–	–
N#Cc1c(-c2ccccc2)nc2c(c(-c3ccccc3)nn2-c2ccccc2)c1-c1ccc(O)cc1	5.35	7.32	4.21 µM	4.29	3.8	–	3.53	–	2.63	2.06	–	–	1.86	–	–	–	–	2.16	1.88	1.9
CC(=O)OCCOCBr	> 100	> 100	> 100 µM	> 100	–	–	> 100	> 100	–	–	> 100	> 100	–	–	–	–	–	–	–	–
NC1=NC(=O)C(CC(=O)Nc2ccc([N+](=O)[O-])cc2[N+](=O)[O-])S1 (configuration not stated)	> 100	> 100	89.4 µM	> 100	> 100	> 100	> 100	> 100	–	–	> 100	> 100	–	–	–	–	–	–	–	–
CCN(Cc1c(F)cccc1F)c1ccc(CO)c(Cl)c1	45.6	12.8	0.988 µM	28	> 100	–	> 90.4	–	0.0291	0.162	–	–	0.139	–	–	–	–	15.3	0.108	24.4
CC(=O)c1c(C)n([O-])c2cc(C)c(C)cc2[n+]1=O	> 100	–	–	> 100	> 100	> 100	> 100	> 100	–	–	> 100	> 100	–	–	–	–	–	–	–	–

— PubChem BioAssay (NCI)
